Tests used:
[1] = target: T1, DNA topoisomerase II covalent complexes in ex vivo expanded CD34+ cells (Homo sapiens, UniProt P11388); assay: Modified ICE bioassay in ex vivo expanded CD34+ cells; format: cell-based; conditions: 2 hours, etoposide 100 μM
T1 construct: endogenous in cells; host or cells: primary human bone marrow CD34+ cells, expanded ex vivo
Description: (§1) After flash-freezing and thawing at 37° C., the DNA was sheared by passage through a 251/2 G needle. […] The pellet was dissolved in 200 μl of 10 mM Tris-HCl (pH 8.0) 1 mM EDTA buffer, the DNA was quantified and 5.6 μg of DNA was analyzed on a Western blot with a mouse anti-human DNA topoisomerase IIα antibody (DAKO, Glostrup, Denmark) to detect DNA topoisomerase IIα-bound DNA (11).

[2] = target: human DNA topoisomerase IIα (Homo sapiens, UniProt P11388); assay: DNA topoisomerase II in vitro cleavage assay; conditions: for cleavage at MLL bcr position 6588 over cleavage without drug (enzyme-only): drug at 20 μM, 10 min 37° C.
[3] = target: DNA topoisomerase II cleavage complexes in CEM cells (Homo sapiens, UniProt P11388); assay: Modified ICE (in vivo complex of enzyme) bioassay in CEM cells; conditions: 20 μM, 2 hours
[4] = target: T2, DNA topoisomerase II cleavage complexes in K562 cells (Homo sapiens, UniProt P11388); assay: Modified ICE bioassay in K562 cells; format: cell-based; conditions: for induction of DNA topoisomerase II cleavage complexes: 20 μM
T2 construct: endogenous in cells; host or cells: K562 cells
Description: as §1
(§2) However, doxorubicin is an intercalative DNA topoisomerase II poison that induces DNA topoisomerase II cleavage with different sequence site-selectivity (Capranico et al., 1990) and that also is associated with leukemia as a treatment complication, albeit less often (Sandoval et al., 1993).

[5] = target: T3, DNA topoisomerase II covalent complexes with MLL and other sequences in CD34+ cells (Homo sapiens, UniProt P11388); assay: Immunoaffinity purification, DOP amplification and real-time PCR of DNA topoisomerase IIα-bound DNA; format: cell-based
T3 construct: endogenous in cells; host or cells: primary human bone marrow CD34+ cells, expanded ex vivo

[6] = target: T4, DNA topoisomerase II cleavage complexes with the MLL bcr in CD34+ cells (Homo sapiens, UniProt P11388); assay: MLL bcr oligonucleotide microarray (XEOCHIP) of DNA topoisomerase II-bound DNA; format: cell-based; conditions: 100 μM, Q-Q plot
T4 construct: endogenous in cells; host or cells: primary human bone marrow CD34+ cells, expanded ex vivo
Text: Employing XEOCHIP™ technology (Xeotron, Houston, Tex.), a first generation MLL bcr oligonucleotide array containing replicate slots of each of 162 probes was created. The 162 probes included 73 probes for the non-repetitive MLL bcr sequences, 8 probes for the Alu region between nucleotide positions 663-1779 in the MLL bcr, 57 probes for MLL exon 25 which is unaffected by the translocations, and 24 probes for 9 bacterial control genes (see Tables 2 and 3; Tables 4 and 5 provide another example of a series of oligonucleotides that can be employed in a microarray). The 8.3 kb MLL bcr is represented by replicates of each of the 73 50 mers at average intervals of 115 bases to span the bcr. Because it has been well documented in the literature that the printing, general hybridization conditions, and scanning of microarrays introduce systemic effects that are related to the position on the chip, replicates of each of the probes in the array have been spaced throughout the chip.
Primary CD34+ selected human bone marrow cells were obtained through the NHLBI or purchased commercially. The cells were expanded ex vivo using conditions optimized to promote minimal differentiation in order to increase cell numbers as required to generate a useful model system.
DOP of the immunoaffinity-purified DNA topoisomerase II cleavage complexes from the treated and untreated cells was performed exactly as was done with the reference sample. […] Dye-swap experiments were also performed.
GeneSpring (Silicon Genetics, Redwood City, Calif.) was employed as a computational tool to visualize and analyze the data from MLL bcr XEOCHIPS™ with either treated or untreated samples in one channel and the reference sample in the other.
DOP-amplified DNA from the DNA topoisomerase II cleavage complexes in treated or untreated cells on separate chips was labeled with ALEXA FLUOR® 546. The MLL bcr reference sample was labeled with ALEXA FLUOR® 647. The null hypothesis represented by the straight line is that there is no effect at any probe, whereas upward departure points are potential hotspots and downward departure points are potential coldspots.

[7] = target: T5, DNA topoisomerase II covalent complexes in KG1 cells (Homo sapiens, UniProt P11388); assay: Modified ICE bioassay in KG1 cells; format: cell-based; conditions: doxorubicin at 100 μM
T5 construct: endogenous in cells; host or cells: KG1 (KG-1) cells
Description: The assays were performed on CEM cells (FIG. 7A), K562 cells (FIGS. 7B and 7C), and KG-1 cells (FIG. 7D).
as §1, §2

[8] = test system: ex vivo expanded CD34+ cells; assay: Cell viability by Trypan Blue exclusion; format: cell-based, human; conditions: etoposide 2 hours, same for untreated
Description: as §1
Cell viability assessed by Trypan blue exclusion was ˜70% for both conditions. As predicted in proliferating cells (6), native DNA topoisomerase II covalent complexes were detected in the untreated cells. […] The DNA topoisomerase IIα protein ran higher than its known molecular weight of 170 kDa, which is consistent with the presence of DNA bound to the enzyme.

[9] = 20 μM, additional 10 min at 75° C.

T2 sequence (P11388 whole entry, one chain of several): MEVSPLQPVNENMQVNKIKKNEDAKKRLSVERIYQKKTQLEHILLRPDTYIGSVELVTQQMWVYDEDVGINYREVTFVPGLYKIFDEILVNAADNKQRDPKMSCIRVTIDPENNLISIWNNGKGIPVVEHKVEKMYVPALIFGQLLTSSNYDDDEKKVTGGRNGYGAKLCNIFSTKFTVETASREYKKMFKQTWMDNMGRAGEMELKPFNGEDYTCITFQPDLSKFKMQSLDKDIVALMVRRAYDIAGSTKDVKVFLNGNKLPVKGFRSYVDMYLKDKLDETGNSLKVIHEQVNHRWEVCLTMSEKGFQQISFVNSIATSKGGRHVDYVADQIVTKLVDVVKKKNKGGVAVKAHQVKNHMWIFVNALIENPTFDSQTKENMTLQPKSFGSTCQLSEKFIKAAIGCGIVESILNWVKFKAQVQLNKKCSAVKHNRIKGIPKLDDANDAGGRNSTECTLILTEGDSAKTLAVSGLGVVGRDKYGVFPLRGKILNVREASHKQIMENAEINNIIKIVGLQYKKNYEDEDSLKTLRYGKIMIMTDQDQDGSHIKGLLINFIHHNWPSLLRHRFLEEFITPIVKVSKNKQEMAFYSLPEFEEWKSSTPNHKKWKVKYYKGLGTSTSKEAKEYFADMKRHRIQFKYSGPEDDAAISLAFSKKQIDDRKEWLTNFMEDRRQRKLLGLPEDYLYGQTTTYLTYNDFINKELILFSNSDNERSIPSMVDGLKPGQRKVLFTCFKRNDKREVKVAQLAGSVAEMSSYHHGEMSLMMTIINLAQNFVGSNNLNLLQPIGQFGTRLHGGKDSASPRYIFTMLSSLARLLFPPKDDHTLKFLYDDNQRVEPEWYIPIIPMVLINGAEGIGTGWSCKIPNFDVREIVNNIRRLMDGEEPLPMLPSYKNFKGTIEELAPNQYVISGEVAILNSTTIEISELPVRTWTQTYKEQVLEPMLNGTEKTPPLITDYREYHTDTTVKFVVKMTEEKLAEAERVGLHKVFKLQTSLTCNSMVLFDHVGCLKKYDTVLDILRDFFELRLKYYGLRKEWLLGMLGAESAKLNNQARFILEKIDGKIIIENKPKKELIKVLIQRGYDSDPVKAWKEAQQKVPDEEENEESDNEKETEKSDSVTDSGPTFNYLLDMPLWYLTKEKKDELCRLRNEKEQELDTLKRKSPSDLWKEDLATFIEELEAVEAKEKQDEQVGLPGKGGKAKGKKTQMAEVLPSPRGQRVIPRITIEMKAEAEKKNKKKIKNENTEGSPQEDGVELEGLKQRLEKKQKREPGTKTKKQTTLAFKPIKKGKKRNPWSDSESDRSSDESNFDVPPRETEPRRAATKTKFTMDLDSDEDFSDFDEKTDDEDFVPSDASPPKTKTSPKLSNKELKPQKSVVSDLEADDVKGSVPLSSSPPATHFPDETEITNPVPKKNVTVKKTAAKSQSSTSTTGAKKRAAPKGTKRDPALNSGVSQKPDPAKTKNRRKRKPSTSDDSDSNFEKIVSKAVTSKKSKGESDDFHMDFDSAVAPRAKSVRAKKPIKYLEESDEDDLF
Chain of human DNA topoisomerase IIα (P11388 whole entry): as the sequence (P11388 whole entry, one chain of several) above
Chain of DNA topoisomerase II cleavage complexes in CEM cells (P11388 whole entry, one chain of several): as above
T4 sequence (P11388 whole entry, one chain of several): as above
T1 sequence (P11388 whole entry, one chain of several): as above
T5 sequence (P11388 whole entry, one chain of several): as above
T3 sequence (P11388 whole entry, one chain of several): as above

| SMILES | formation of DNA topoisomerase II covalent complexes versus untreated cells [1] | cleavage at AF-4 intron 3 position 7126 relative to the strongest enzyme-only cleavage in the substrate (position 7114) ([2]; 20 μM, AF-4 intron 3 substrate) [fold] | rank in relative intensity of cleavage at AF-4 position 7126 among all cleavage sites ([2]; 20 μM, AF-4 intron 3 substrate) | cleavage at MLL bcr position 6588 over cleavage without drug (enzyme-only) ([2]; MLL intron 8 substrate) [fold] | induction of DNA topoisomerase II cleavage complexes [3] | induction of DNA topoisomerase II cleavage complexes [4] | potential coldspots for DNA topoisomerase II cleavage complexes (array probes), treated vs untreated [6] | potential hotspots for DNA topoisomerase II cleavage complexes (array probes), treated vs untreated [6] | induction of DNA topoisomerase II covalent complexes [7] | further results |
| --- | --- | --- | --- | --- | --- | --- | --- | --- | --- | --- |
| COc1cc([C@@H]2c3cc4c(cc3[C@@H](O[C@@H]3O[C@@H]5CO[C@@H](C)O[C@H]5[C@H](O)[C@H]3O)[C@H]3COC(=O)[C@H]23)OCO4)cc(O)c1O [etoposide catechol] | increased formation of topoisomerase-DNA cleavage complexes | 5.9 | first | 4.4 | significant induction | – | – | – | – | amount of cleavage complexes induced compared with etoposide [3]: comparable in amount to the parent drug |
| COC1=CC(C2c3cc4c(cc3C(O[C@@H]3O[C@@H]5COC(C)O[C@H]5[C@H](O)[C@H]3O)C3COC(=O)C23)OCO4)=CC(=O)C1=O (stereo partly drawn) [etoposide quinone] | – | 3.4 | 5th | 9.8 | significant induction | Induction of DNA cleavage complexes was also observed | – | – | – | concentration dependence of induction of DNA topoisomerase II cleavage complexes ([4]; 2 hours): concentration dependent increase; rank of cleavage at MLL bcr position 6588 among cleavage sites in the substrate ([2]; 20 μM, MLL intron 8 substrate): 3rd |
| O=c1c(-c2ccc(O)cc2)coc2cc(O)cc(O)c12 [genistein] | – | – | – | – | – | – | probes 1-31 (SEQ ID NO: 27), 2-50 (SEQ ID NO: 162), 1-74 (SEQ ID NO: 62), 2-28 (SEQ ID NO: 34), 1-10 (SEQ ID NO: 83), and 1-22 (SEQ ID NO: 71) | Probes 1-68 (SEQ ID NO: 157), 1-41 (SEQ ID NO: 49), 1-51 (SEQ ID NO: 141), and 1-33 (SEQ ID NO: 132) | – | real-time PCR products, MLL intron 7-exon 8 amplicon [5]: real-time PCR products that were detected |
| COc1cccc2c1C(=O)c1c(O)c3c(c(O)c1C2=O)C[C@@](O)(C(=O)CO)C[C@@H]3O[C@H]1C[C@H](N)[C@H](O)[C@H](C)O1 [doxorubicin] | – | – | – | 0.4 | no induction | no induction | – | – | induced DNA II covalent complexes | cleavage over enzyme-only cleavage at MLL bcr positions 4675 and 4673 and GAS7 position 1238 ([2]; 0.01 μM): quantifiably enhanced cleavage; effect on cleavage at MLL bcr position 6588 over a range of concentrations ([2]; 0.01 μM to 0.5 μM): dose-dependent increases over enzyme-only cleavage; cleavage at MLL 4675, 4673 and GAS7 1238 at high concentration ([2]; 20 μM): complete diminution; cleavage at AF-4 intron 3 position 7126 ([2]; 20 μM or lower concentrations, AF-4 intron 3 substrate): no detectable cleavage; concentration at which cleavage at AF-4 positions 7111, 7114 and 7119 began to decrease ([2]; AF-4 intron 3 substrate): 0.5 µM; effect on cleavage at AF-4 intron 3 positions 7111, 7114 and 7119 over a range of concentrations ([2]; AF-4 intron 3 substrate): dose-dependent increases in cleavage stimulation over enzyme-only cleavage; concentration at which cleavage enhancement at MLL 4675, 4673 and GAS7 1238 began to decrease ([2]; MLL and GAS7 substrates): 0.1 µM; concentration at which cleavage enhancement at MLL bcr position 6588 began to decrease ([2]; MLL intron 8 substrate): 2.5 µM; effect on cleavage at MLL bcr positions 6587 and 6589 ([2]; all concentrations tested): only catalytic inhibition |
| COc1cc([C@@H]2c3cc4c(cc3[C@@H](O[C@@H]3O[C@@H]5CO[C@@H](C)O[C@H]5[C@H](O)[C@H]3O)[C@H]3COC(=O)[C@H]23)OCO4)cc(OC)c1O [etoposide] | increased formation of DNA topoisomerase II covalent complexes | – | – | 7.9 | significant induction | Induction of DNA cleavage complexes was also observed | probes 2-28, 1-30, 1-18, and 1-15 | probes 1-41 and 1-51 | induced DNA II covalent complexes | cell viability assessed by Trypan blue exclusion [8]: ~70%; heat stability of cleavage at AF-4 intron 3 position 7126 [2, 9]: especially heat-stable; heat stability of cleavage complexes at MLL bcr position 6588 [2, 9]: remained detectable after heating |

From patent US8642265B2, “Compositions and methods for the detection of topoisomerase II complexes with DNA” (The Children's Hospital of Philadelphia, priority 2004, dated 2014)
